In patent US20230266302A1, “SYNTHESIS AND USE OF N-BENZYL SULFONAMIDES” (THE UNIVERSITY OF TULSA, priority 2020, published 2023):

Tests used:
Experiment in all cases: ATP level assay (CellTiter-Glo), percent of control
Assay type in all cases: cell-based
MCF7 (breast cancer) = conditions: two hour incubation; for activity at 100 µM: Homo sapiens, MCF7, 2 h, compound alone, control DMSO, read-out: POC (percent of control) MCF7
MDA-MB (breast cancer) = conditions: two hour incubation; for activity at 100 µM: 2 h, compound alone, control DMSO, read-out: POC (percent of control) MDA-MB
[1] = test system: BxPC3 (pancreatic cancer); conditions: two hour incubation; for activity at 100 µM: Homo sapiens, BXPC-3, 2 h, compound alone, control DMSO, read-out: POC (percent of control) BxPC3
H293 (kidney cancer) = conditions: two hour incubation; for activity at 100 µM: 2 h, compound alone, control DMSO, read-out: POC (percent of control) H293
HDF (normal cells) = conditions: two hour incubation; for activity at 100 µM: 2 h, compound alone, control DMSO, read-out: POC (percent of control) HDF
HeLa (cervical cancer) = conditions: two hour incubation; for activity at 100 µM: Homo sapiens, HeLa, 2 h, compound alone, control DMSO, read-out: POC (percent of control) HeLa
SkBr3 (breast cancer) = conditions: two hour incubation; for activity at 100 µM: Homo sapiens, SK-BR-3, 2 h, compound alone, control DMSO, read-out: POC (percent of control) SkBr3
NCI-H196 (lung cancer) = conditions: two hour incubation; for activity at 100 µM: NCI-H196, 2 h, compound alone, control DMSO, read-out: POC (percent of control) NCI-H196
T47D (breast cancer) = conditions: two hour incubation; for activity at 100 µM: Homo sapiens, T47D, 2 h, compound alone, control DMSO, read-out: POC (percent of control) T47D
PC3 (prostate cancer) = conditions: two hour incubation; for activity at 100 µM: 2 h, compound alone, control DMSO, read-out: POC (percent of control) PC3
[2] = test system: MCF10A (non-cancerous breast); conditions: two hour incubation; for activity at 100 µM: Homo sapiens, MCF-10A, 2 h, compound alone, control DMSO, read-out: POC (percent of control) MCF10A
[3] = compound 100 uM + 2DG (about 10-20 mM)
[4] = compound 100 uM + rotenone (approximately 1.25 μM)

| SMILES | activity at 100 µM (MCF7 (breast cancer)) [%] | POC (percent of control) MCF7 (MCF7 (breast cancer); [3]) | POC (percent of control) MCF7 (MCF7 (breast cancer); [4]) | activity at 100 µM (MDA-MB (breast cancer)) [%] | POC (percent of control) MDA-MB (MDA-MB (breast cancer); [3]) | POC (percent of control) MDA-MB (MDA-MB (breast cancer); [4]) | activity at 100 µM [1] [%] | POC (percent of control) BxPC3 [1, 4] | activity at 100 µM (H293 (kidney cancer)) [%] | POC (percent of control) H293 (H293 (kidney cancer); [3]) | POC (percent of control) H293 (H293 (kidney cancer); [4]) | activity at 100 µM (HDF (normal cells)) [%] | POC (percent of control) HDF (HDF (normal cells); [3]) | POC (percent of control) HDF (HDF (normal cells); [4]) | activity at 100 µM (HeLa (cervical cancer)) [%] | POC (percent of control) HeLa (HeLa (cervical cancer); [3]) | POC (percent of control) HeLa (HeLa (cervical cancer); [4]) | activity at 100 µM (SkBr3 (breast cancer)) [%] | POC (percent of control) SkBr3 (SkBr3 (breast cancer); [3]) | POC (percent of control) SkBr3 (SkBr3 (breast cancer); [4]) | other results |
| --- | --- | --- | --- | --- | --- | --- | --- | --- | --- | --- | --- | --- | --- | --- | --- | --- | --- | --- | --- | --- | --- |
| COc1ccc(S(=O)(=O)NCc2c[nH]c3ccccc23)cc1 [Compound 23, N-(1H-indol-3-ylmethyl)-4-methoxybenzenesulfonamide] | 96.3 | 93.6% of control | 121.1% of control | 98.6 | 85.9% of control | 83% of control | 95.9 | 78.5% of control | 92.1 | 47.4% of control | 65.3% of control | 74.6 | 90.6% of control | 119.9% of control | 84.1 | 86.9% of control | 93.7% of control | 85.9 | 75.5% of control | 87.7% of control | activity at 100 µM (NCI-H196 (lung cancer)): 93%; POC (percent of control) NCI-H196 (NCI-H196 (lung cancer); [3]): 83.5% of control; POC (percent of control) NCI-H196 (NCI-H196 (lung cancer); [4]): 85.6% of control; activity at 100 µM (T47D (breast cancer)): 54%; POC (percent of control) T47D (T47D (breast cancer); [3]): 46.6% of control; POC (percent of control) T47D (T47D (breast cancer); [4]): 71.7% of control; activity at 100 µM (PC3 (prostate cancer)): 77.3%; POC (percent of control) PC3 (PC3 (prostate cancer); [3]): 92.9% of control; POC (percent of control) PC3 (PC3 (prostate cancer); [4]): 87.9% of control; activity at 100 µM [2]: 85%; POC (percent of control) MCF10A [2, 3]: 82.8% of control; POC (percent of control) MCF10A [2, 4]: 85.1% of control |
| O=S(=O)(NCc1c[nH]c2ccccc12)c1ccc(C(F)(F)F)cc1 [Compound 24, N-(1H-indol-3-ylmethyl)-4-(trifluoromethyl)benzenesulfonamide] | 82.9 | 55.7% of control | 66.5% of control | 96.4 | 41.5% of control | 49.7% of control | 59 | 38.6% of control | 62.6 | 42.1% of control | 47.6% of control | 57.2 | 65.6% of control | 95.7% of control | 78.9 | 80.4% of control | 96.1% of control | 93.4 | 66.5% of control | 67.2% of control | POC (percent of control) BxPC3 [1, 3]: 43.1% of control; activity at 100 µM (NCI-H196 (lung cancer)): 172%; POC (percent of control) NCI-H196 (NCI-H196 (lung cancer); [3]): 54.6% of control; POC (percent of control) NCI-H196 (NCI-H196 (lung cancer); [4]): 73.3% of control; activity at 100 µM (T47D (breast cancer)): 70.6%; POC (percent of control) T47D (T47D (breast cancer); [3]): 49.7% of control; POC (percent of control) T47D (T47D (breast cancer); [4]): 65.5% of control; activity at 100 µM (PC3 (prostate cancer)): 54.6%; POC (percent of control) PC3 (PC3 (prostate cancer); [3]): 52.5% of control; POC (percent of control) PC3 (PC3 (prostate cancer); [4]): 47.5% of control; activity at 100 µM [2]: 85.1%; POC (percent of control) MCF10A [2, 3]: 56.8% of control; POC (percent of control) MCF10A [2, 4]: 59.1% of control |
| O=[N+]([O-])c1cccc(S(=O)(=O)NCc2c[nH]c3ccccc23)c1 [Compound 25, N-(1H-indol-3-ylmethyl)-3-nitrobenzenesulfonamide] | 112 | 92.9% of control | 104.2% of control | 103 | 86.2% of control | 88.8% of control | 85.1 | 78.2% of control | 99.7 | 79.6% of control | 68.8% of control | 79.2 | 93.6% of control | 95.5% of control | 89.4 | 90.8% of control | 95.6% of control | 112 | 88.2% of control | 104.1% of control | POC (percent of control) BxPC3 [1, 3]: 71.5% of control; activity at 100 µM (NCI-H196 (lung cancer)): 305%; POC (percent of control) NCI-H196 (NCI-H196 (lung cancer); [3]): 92.9% of control; POC (percent of control) NCI-H196 (NCI-H196 (lung cancer); [4]): 83% of control; activity at 100 µM (T47D (breast cancer)): 94.4%; POC (percent of control) T47D (T47D (breast cancer); [3]): 88.9% of control; POC (percent of control) T47D (T47D (breast cancer); [4]): 86.7% of control; activity at 100 µM (PC3 (prostate cancer)): 60.2%; POC (percent of control) PC3 (PC3 (prostate cancer); [3]): 96.8% of control; POC (percent of control) PC3 (PC3 (prostate cancer); [4]): 80.1% of control; activity at 100 µM [2]: 95.7%; POC (percent of control) MCF10A [2, 3]: 98.3% of control; POC (percent of control) MCF10A [2, 4]: 80.4% of control |
| CS(=O)(=O)NCc1c[nH]c2ccccc12 [Compound 26, N-(1H-indol-3-ylmethyl)methanesulfonamide] | 114 | 95.9% of control | 119.8% of control | 90.2 | 87.6% of control | 79.2% of control | 99.1 | 88.8% of control | 110 | 72.9% of control | 72% of control | 106 | 91.1% of control | 86.9% of control | 90.4 | 106.9% of control | 96.3% of control | 109 | 95.7% of control | 97.1% of control | POC (percent of control) BxPC3 [1, 3]: 86.6% of control; activity at 100 µM (NCI-H196 (lung cancer)): 220%; POC (percent of control) NCI-H196 (NCI-H196 (lung cancer); [3]): 91.3% of control; POC (percent of control) NCI-H196 (NCI-H196 (lung cancer); [4]): 80.8% of control; activity at 100 µM (T47D (breast cancer)): 93.3%; POC (percent of control) T47D (T47D (breast cancer); [3]): 101% of control; POC (percent of control) T47D (T47D (breast cancer); [4]): 90.8% of control; activity at 100 µM (PC3 (prostate cancer)): 92.3%; POC (percent of control) PC3 (PC3 (prostate cancer); [3]): 111.5% of control; POC (percent of control) PC3 (PC3 (prostate cancer); [4]): 89.6% of control; activity at 100 µM [2]: 106%; POC (percent of control) MCF10A [2, 3]: 99.9% of control; POC (percent of control) MCF10A [2, 4]: 81% of control |
